Assay results taken from patent publication US7381745B2, “Ligands for metabotropic glutamate receptors and inhibitors of NAALADase” (Georgetown University, priority 1999, dated 2008).
“And” between values parts separate entries of the source, which are not always exact repeats. Equal entries are not always repeated. Where two headings read alike, the source gives them in different places. Values belong to the molecule of their own block, whether it stands above or below them. Residues, ends and D or L forms follow the SMILES beside them.

Tests used:
[1] = test system: NMDA toxicity in cortical neuronal cells; experiment: NMDA toxicity model C: cortical neurons given medium from drug-treated glial cells, LDH release; format: cell-based, mice; settings: for Neuroprotection against NMDA toxicity: model C protocol, 1 μM, LDH at 24 hours
Experimental: (§1) We have tested the validity of these statements using three models of NMDA toxicity in cultures of cortical neurons prepared from fetal mice. The first model (A) consists of using a culture containing neurons without glial cells. NMDA (75 μM) is applied for 10 min without or with the tested compound. Then the culture medium is replaced and cells are left for 24 hours to develop toxicity. The second model (B) involves the use of mice cortical neurons which are seeded on a layer of confluent glial cells (mostly astrocytes) prepared from cerebral cortex of newborn mice. The incubations are identical as in model A. The third model (C) separates the neuronal and glial cultures. Glial cultures are treated with the tested neuroprotective compound in order to induce the release of protective factors into the medium. In parallel, cultures of cortical neurons (without glia) are treated for 10 min with NMDA (20 μM). Then NMDA is washed out and the neurons are treated with the medium collected from the treated glial cells. In all cases toxicity is assessed 24 hours after NMDA treatment by measurements of lactate dehydrogenase (LDH) activity accumulated in the medium during this period of time.
This was done using a published protocol in which cultures of cortical glial cells are first treated with the test compound in order to induce the release of protective factors into the medium. In parallel, cultures of cortical neurons (without glia) are exposed for 10 min to the excitotoxic action of NMDA (20 μM). The NMDA is removed by washing, and the neurons are treated with the medium collected from the treated glial cells. Toxicity is then assessed 24 hours after NMDA treatment by the measurement of lactate dehydrogenase (LDH) activity, which serves as a marker for dying cells. […] Among the potent GCPII inhibitors tested, three compounds [HO2C(CH2)2CH(CO2H)CH2]2P(O)(OH), (S)-Glu-C(O)-(S)Glu, and (S)-Asp-C(O)-(S)Glu produced at 1 μM a similarly modest neuroprotection ranging from 21% to 31%. In contrast, the two Cys-containing compounds, (t-Bu)Cys-C(O)-(S)-Glu and (S)-Cys-C(O)-(S)-Glu, produced 69% and 50% neuroprotection, respectively. While the exact mechanism of this neuroprotective effect cannot be explained based entirely upon GCPII inhibition, these exciting results warrant further study in other models of in vitro toxicity, including the assessment of the compounds' effects in vivo.

NMDA-induced cell death = settings: other in vitro models; cited from earlier work
mGluR3 [2] = target: T1, mGluR3 (Rattus norvegicus, UniProt P31422); experiment: mGluR3 receptor activation (cell lines transfected with mGluRs); format: cell-based
T1 construct: expressed in transfected cells
From the text: Our studies began from the dipeptide N-acetyl-L-aspartate-L-glutamate (NAAG), a dipeptide that is quite abundant in the brain, and which is believed to act as a transmitter or co-transmitter in the central nervous system, much like glutamate itself. […] 69, 174(1997)]. Recently, a brain enzyme was identified that is specific for the cleavage of N-acetylated α-linked acidic dipeptides, and as a result this enzyme was named NAALADase [J. Biol. Chem., 1987, 262, 14498].

[3] = test system: transient middle cerebral artery occlusion; settings: cited from earlier work
rat GCPII [4] = target: T2, rat GCPII (Rattus norvegicus, UniProt P70627); settings: cited from earlier work; for IC50: read-out: IC50 against GCPII
T2 construct: expressed in transfected cells

NAALADase = NAALADase (Rattus norvegicus, UniProt P70627); experiment: NAALADase inhibition; format: biochemical; settings: read-out: IC50 as NAALADase inhibitor
[5] = test system: NMDA toxicity in mixed cultures of cortical neuronal-glial cells; experiment: NMDA toxicity model B: mixed cortical neuronal-glial cultures, LDH release; format: cell-based, mice
Experimental: as §1

mGluR3 [6] = target: T1, mGluR3; settings: cited from earlier work
rat GCPII [7] = target: T2, rat GCPII; experiment: Inhibition of rat GCPII stably expressed in CHO cells; format: biochemical; settings: for IC50: read-out: IC50 against expressed rat GCPII
[8] = test system: NMDA toxicity in cultures of cortical neurons; experiment: NMDA toxicity model A: cortical neurons without glial cells, LDH release; format: cell-based, mice; settings: 10 μM, NMDA 75 μM
Experimental: as §1

[9] = test system: U-87 glioblastoma multiforme cells; experiment: Antiangiogenesis in s.c. glioblastoma xenografts (vWF staining); format: in vivo; settings: 100 μM, 0.1 mL once daily into base of xenograft, harvested at 7 days
Experimental: Implanted xenografts were formed by s.c. inoculation with 2×10^6 U-87 glioblastoma multiforme cells mixed with 0.5 mg Matrigel. FN11 was dissolved in PBS to a concentration of either 10 or 100 μM, and injections (0.1 mL) were made once daily into the base of the s.c. implanted xenografts. The starting volumes of the tumors were approximately 250 mm^3. The results from this protocol are depicted in FIG. 15.
Control tumors and tumors grown under the conditions described in Example 21 were harvested at the end of 7 days, fixed in formalin and embedded in paraffin for sectioning. Tissue was stained immunohistochemically for von Willebrand's factor (vWF) to obtain a measure of vascularization. FIGS. 13 and 14 present the results of this protocol for the tumor treated with FN11 at 100 μM. FIG. 13 was taken at low magnification (100×), whereas FIG. 14 was taken at high magnification (400×).

T1 sequence (P31422 23-879): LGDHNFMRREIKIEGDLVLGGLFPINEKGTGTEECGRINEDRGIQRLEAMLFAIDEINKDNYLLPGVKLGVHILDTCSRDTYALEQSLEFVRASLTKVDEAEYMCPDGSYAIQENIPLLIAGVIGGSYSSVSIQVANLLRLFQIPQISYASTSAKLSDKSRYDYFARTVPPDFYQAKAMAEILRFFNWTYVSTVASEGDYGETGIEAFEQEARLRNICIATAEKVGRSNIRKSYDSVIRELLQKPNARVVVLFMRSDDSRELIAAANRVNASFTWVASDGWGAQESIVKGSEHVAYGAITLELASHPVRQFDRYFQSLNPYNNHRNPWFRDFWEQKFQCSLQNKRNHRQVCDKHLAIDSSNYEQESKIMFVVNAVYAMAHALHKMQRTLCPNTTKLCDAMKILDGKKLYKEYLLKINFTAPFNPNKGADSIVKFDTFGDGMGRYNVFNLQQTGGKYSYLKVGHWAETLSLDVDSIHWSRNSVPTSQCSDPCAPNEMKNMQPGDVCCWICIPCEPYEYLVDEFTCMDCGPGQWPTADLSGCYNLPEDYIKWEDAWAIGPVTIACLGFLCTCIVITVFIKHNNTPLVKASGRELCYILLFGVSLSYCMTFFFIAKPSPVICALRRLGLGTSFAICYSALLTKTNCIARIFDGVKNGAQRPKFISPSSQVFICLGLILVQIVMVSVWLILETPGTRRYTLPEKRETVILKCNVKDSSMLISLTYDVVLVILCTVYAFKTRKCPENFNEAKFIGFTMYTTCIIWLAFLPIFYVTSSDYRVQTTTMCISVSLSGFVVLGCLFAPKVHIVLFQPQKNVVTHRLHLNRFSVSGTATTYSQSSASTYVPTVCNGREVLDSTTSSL
T2 sequence (P70627 whole entry): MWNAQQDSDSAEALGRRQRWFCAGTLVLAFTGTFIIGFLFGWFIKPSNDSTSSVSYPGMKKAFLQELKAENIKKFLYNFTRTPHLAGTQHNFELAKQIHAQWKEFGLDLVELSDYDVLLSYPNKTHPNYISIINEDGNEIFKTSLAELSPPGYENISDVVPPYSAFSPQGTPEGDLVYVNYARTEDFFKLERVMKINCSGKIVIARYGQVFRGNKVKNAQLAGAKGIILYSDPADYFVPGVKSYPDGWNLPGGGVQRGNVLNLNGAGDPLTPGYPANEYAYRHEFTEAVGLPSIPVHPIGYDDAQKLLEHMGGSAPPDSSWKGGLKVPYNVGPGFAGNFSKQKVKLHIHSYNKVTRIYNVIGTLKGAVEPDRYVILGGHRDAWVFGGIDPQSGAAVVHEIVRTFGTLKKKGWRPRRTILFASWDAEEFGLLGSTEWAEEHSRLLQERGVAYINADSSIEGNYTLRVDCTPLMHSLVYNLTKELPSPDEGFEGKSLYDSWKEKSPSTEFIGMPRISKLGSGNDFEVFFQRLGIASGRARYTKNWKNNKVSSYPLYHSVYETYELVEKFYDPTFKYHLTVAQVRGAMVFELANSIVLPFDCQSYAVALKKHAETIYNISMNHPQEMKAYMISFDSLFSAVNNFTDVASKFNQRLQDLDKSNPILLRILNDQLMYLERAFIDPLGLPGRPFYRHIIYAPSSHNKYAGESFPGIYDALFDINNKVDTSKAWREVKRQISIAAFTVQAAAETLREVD
NAALADase, sequence (P70627 whole entry): as above

Molecule: 2-(phosphomethyl)pentanedioic acid [PMPA, reference compound]
- Neuroprotection against NMDA toxicity ([1]; NMDA 20 μM): about 25%
- Neuroprotection (in words) ([1]; model C, compared with FN6 enantiomers): less effective
- Neuroprotection against NMDA-induced cell death (NMDA-induced cell death): 16%
- mGluR3 activity (in words) (mGluR3 [2]): act as an agonist at mGluR3
- Glutamate and NAAG levels (in words) ([3]; rat MCAO model): decreased glutamate levels while increasing NAAG levels
- Protection against injury (in words) ([3]; rats, Slusher et al.): significant protection against injury

Molecule: O=C(O)CCC(CP(=O)(O)CC(CCC(=O)O)C(=O)O)C(=O)O (racemic) [FN6, 4,4′-phosphinicobis(butane-1,3-dicarboxylic acid)]
- IC50 (rat GCPII [4]; previous work, listed as PBBDA): 21.7 ± 2.1 nM
- IC50 (rat GCPII [4]; previous work, listed as [HO2C(CH2)2CH(CO2H)CH2]2P(O)(OH)): 26 nM
- IC50 (NAALADase): 4 nM
- Neuroprotection ([5]; 300 μM): about 30%
- EC50 (mGluR3 [6]; previous work, read-out: mGluR3 selective agonist potency): ~30000 nM

Molecule: N[C@@H](CC(=O)O)C(=O)N[C@@H](CC(=O)O)C(=O)O [(S)-Asp-(S)-Asp, reference compound] (H-Asp-Asp-OH)
- inhibition of GCPII (rat GCPII [4]; at 100 μM, dipeptide, published data for comparison): 42% inhibition at 100 μM
- IC50 (rat GCPII [4]; published data, ref. 6a): 58000 nM

Molecule: O=C(NC(CS)C(=O)O)NC(CS)C(=O)O [(S)-Cys-C(O)-(S)-Cys]
- GCPII inhibitory activity (in words) (rat GCPII [7]; tested at 1 μM): Inactive at 1 μM

Molecule: N[C@@H](CCC(=O)O)C(=O)N[C@@H](CCC(=O)O)C(=O)O [(S)-Glu-(S)-Glu, reference compound] (H-Glu-Glu-OH)
- fold less potent than (S)Glu-C(O)-(S)Glu at GCPII (rat GCPII [7]): 16 fold

Molecule: O=C(O)CC[C@H](NC(=O)C(=O)N[C@@H](CCC(=O)O)C(=O)O)C(=O)O [(S)-Glu-C(O)-C(O)-(S)-Glu]
- GCPII inhibitory activity (in words) (rat GCPII [7]): inactive
- inhibition of expressed rat GCPII (rat GCPII [7]; at 1 μM): 9% inbibition at 1 μM

Molecule: NC1(C(=O)O)CC2CC1C2C(=O)O (stereo not shown) [ABHxD-I, 2-aminobicyclo 2.1.1 hexahe-2.5-dicarboxylic acid, reference compound]
- Protection against NMDA toxicity (in words) ([1]; model C, 10 μM, NMDA 20 μM): as effective as in model B
- Reduction of the toxic effect of NMDA ([5]; 10 μM, NMDA 75 μM): over 40%
- Protection against NMDA toxicity (in words) [8]: not able to protect against NMDA toxicity

Molecule: O=C(O)CCC(CC(=O)CC(CCC(=O)O)C(=O)O)C(=O)O (stereo not shown) [A]
- mGluR3 activity (in words) (mGluR3 [2]): retained significant mGluR3 activity

Molecule: O=C(O)CC[C@H](NC(=O)N[C@@H](CCC(=O)O)C(=O)O)C(=O)O [FN11]
- Vascularization of tumor (von Willebrand's factor staining) [9]: preponderance of avascular and low vascular areas
- IC50 (rat GCPII [7]): 47 nM

Molecule: O=C(O)CC[C@@H](NC(=O)N[C@H](CCC(=O)O)C(=O)O)C(=O)O [FN13]
- Neuroprotection ([1]; model C, 100 μM): about 20%

Molecule: O=C(O)CC[C@H](NC(=O)N[C@H](CCC(=O)O)C(=O)O)C(=O)O [FN16]
- inhibition at 100 µM (rat GCPII [7]; read-out: inhibition of expressed rat GCPII): 97%

Molecule: CC(=O)N[C@@H](CC(=O)O)C(=O)N[C@@H](CCC(=O)O)C(=O)O [NAAG, N-acetyl-L-aspartate-L-glutamate, reference compound] (Ac-Asp-Glu-OH)
- EC50 (mGluR3 [6]; cell lines transfected with mGluR1-6, read-out: EC50 for activation of mGluR3): 65000 ± 20000 nM

Molecule: O=C(O)CC[C@H](NC(=O)N[C@@H](CC(=O)O)C(=O)O)C(=O)O [PC107]
- IC50 (rat GCPII [7]; listed as (S)-Asp-C(O)-(S)-Glu): 46 nM and 46.1 nM

Molecule: O=C(O)CC[C@H](NC(=O)N[C@@H](CS)C(=O)O)C(=O)O [PC118]
- Neuroprotection against NMDA toxicity ([1]; NMDA 20 μM): 50%
- GCPII inhibitory activity (in words) (rat GCPII [7]): nearly as potent as (S)-Glu-C(O)-(S)-Glu
- IC50 (rat GCPII [7]): 72.4 ± 6.5 nM

Further lines, with some results ahead:

- melting point: > 142 °C
Molecule: O=C(O)C[C@H](NC(=O)N[C@@H](CC(=O)O)C(=O)O)C(=O)O (hydrate or solvate) [PC103]

- melting point: 108 to 110 °C
Molecule: CC(C)(C)NC(=O)N[C@@H](CCC(=O)O)C(=O)O (hydrate or solvate) [PC113]

- IC50 (rat GCPII [7]): 3800 nM
Molecule: O=C(O)C[C@H](NC(=O)N[C@@H](CC(=O)O)C(=O)O)C(=O)O [PC103]

- GCPII inhibitory activity (in words) (rat GCPII [7]): inactive
- inhibition at 1 µM (rat GCPII [7]; at 1 μM): 46%
Molecule: O=C(O)CC[C@H](NC(=O)NCC(=O)O)C(=O)O [PC108]

- GCPII inhibitory activity (in words) (rat GCPII [7]): inactive
- inhibition at 1 µM (rat GCPII [7]; at 1 μM): 10%
Molecule: CC(C)(C)NC(=O)N[C@@H](CCC(=O)O)C(=O)O [PC113]

- IC50 (rat GCPII [7]): 101 ± 19.3 nM
- Ki (rat GCPII [7]; read-out: Ki against GCPII): ~100 nM
Molecule: CC(C)(C)SC[C@H](NC(=O)N[C@@H](CCC(=O)O)C(=O)O)C(=O)O [PC120]
- Neuroprotection against NMDA toxicity ([1]; NMDA 20 μM): 69%
